# Laboratory results published in patent US4414388A, “1-Oxo-1H-thiazolo[3,2-a]pyrimidine-2-carboxamides” (Pfizer Inc., priority 1981, dated 1983).
# Columns and labels:
# [1] = tested on: IgE-mediated passive cutaneous anaphylaxis (PCA); assay: PCA test, intravenous, comparison with Intal, IgE-mediated permeability; type: in vivo, rat
# Experimental: In the PCA test, normal animals are injected intradermally (i.d.) with antibodies contained in serum obtained from actively sensitized animals. The animals are then challenged intravenously with antigen mixed with a dye such as Evans' Blue. The increased capillary permeability caused by the antigen-antibody reaction causes the dye to leak from the site of the antibody injection. The test animals are then asphyxiated and the intensity of the reaction determined by measuring the diameter and intensity of the blue coloration on the inner surface of the animals' skin.
# The ability of agents to interfere with PCA reactions is measured in male Charles River Wistar rats, 170-210 g. Reaginic antiserum, rich in IgE antibodies, is prepared according to Petillo et al., Int. Arch. […] Hyperimmune antiserum rich in IgG antibodies to hen egg albumin is prepared according to Orange et al., J. Exptl. […] Forty-eight hours prior to antigen challenge, the reaginic antiserum is injected intradermally (i.d.) into the shaved skin of a normal rat's back; 5 hours before challenge the hyperimmune antisera is similarly injected. […] The difference is expressed as percent blockage due to the compound employed.
# histamine and serotonin = assay: cutaneous permeability caused by intradermal exogenous histamine and serotonin; type: in vivo, rat
# Experimental: The ability of agents to interfere with PCA reactions is measured in male Charles River Wistar rats, 170-210 g. Reaginic antiserum, rich in IgE antibodies, is prepared according to Petillo et al., Int. Arch. Allergy, 44, 309 (1973). Hyperimmune antiserum rich in IgG antibodies to hen egg albumin is prepared according to Orange et al., J. Exptl. Med., 127, 767 (1968). Forty-eight hours prior to antigen challenge, the reaginic antiserum is injected intradermally (i.d.) into the shaved skin of a normal rat's back; 5 hours before challenge the hyperimmune antisera is similarly injected. At a third site 60 mcg. histamine dihydrochloride and 0.5 mcg. serotonin creatinine sulfate are injected i.d. just prior to antigen challenge as a check for antihistaminic, antiserotonin and unspecific types of blockage; the compounds of the instant invention or saline are then administered i.v. and immediately followed by the challenge of 5 mg. egg albumen and 2.5 mg. Evans' Blue dye in saline. In the case of oral administration Evans' Blue dye and egg albumin are given 5 minutes after administration of the drug. Thirty minutes later the animals are asphyxiated using chloroform and the skin of the back removed and reversed for observation. […] The difference is expressed as percent blockage due to the compound employed.
# [2] = tested on: dextran induced release of histamine; assay: dextran induced release of histamine into the rat peritoneal cavity; type: in vivo; details: ip
# From the text: Compound III inhibits dextran induced release of histamine into the rat peritoneal cavity.
# [3] = tested on: passive systemic anaphylaxis; assay: passive systemic anaphylaxis (rise in plasma histamine on antigen challenge); type: in vivo, rat
# [4] = tested on: isolated guinea pig ileum; assay: spasms of isolated guinea pig ileum; details: 10^-8 to 10^-4 M
# [5] = tested on: pentagastrin-stimulated acid output; assay: pentagastrin-stimulated acid output in Heidenhain pouch dogs; type: in vivo, dog; details: 5 mg/kg, i.v.
# urinary volume output = assay: diuretic activity; type: in vivo; details: oral
# Experimental: When given orally, it caused a dose-related increase in urinary volume output at doses in the range 0.3 to 5 mg/kg. […] These findings indicate that the dose-response range for diuretic activity is considerably higher than that for antiulcer effects and just below that for antiallergy effects (1 to 10 mg/kg).
# dogs [6] = assay: toleration study in dogs, 7 days oral; type: in vivo, dog
# Experimental: In toleration studies, III was given orally by gavage to dogs for a period of seven days at doses of 50, 150 and 300 mg/kg/day.
# dogs [7] = assay: dogs, intravenous five days, serum enzymes; type: in vivo, dog; details: i.v. five days at 1, 3, 10, 3 and 3 mg/kg
# rats = assay: toleration study in rats, 10 days oral; type: in vivo, rat
# Experimental: Rats were given III orally by gavage at doses of 50, 150 and 300 mg/kg/day for 10 days.
# bone marrow = assay: chromosomal damage in bone marrow of mice; type: in vivo, mouse; details: single oral dose 40 mg/kg; 6, 12 or 24 hours
# Experimental: Single oral doses of III, 40 mg/kg, were administered to groups of mice who were sacrificed 6, 12 or 24 hours later. […] From these findings, it is evident that III has no obvious mutagenic potential.
# human lymphocytes = assay: chromosomal breakage in human lymphocytes in vitro; type: cell-based; details: 1000, 100, 10 or 0 μg/ml
# [8] = plasma concentration / oral absorption in dogs; type: in vivo, dog
# Experimental: This is supported by the observations of plasma concentrations of 3 to 7 μg/ml one hour after oral administration of III, 50 to 300 mg/kg.
# anticholinergic effects = assay: anticholinergic effects
# [9] = oral gavage 50, 150 and 300 mg/kg/day, seven days
# [10] = oral gavage 50, 150 and 300 mg/kg/day
compound,measurement,setting,value
"O=C(Nc1nnn[nH]1)c1cnc2sc3c(n2c1=O)CCCC3 [compound III, N-(5-tetrazolyl)-1-oxo-1H-cyclohexenothiazolo[3,2-a]pyrimidine-2-carboxamide]","intravenous activity in the PCA test, dose range",[1]; intravenous,0.03 to 1.0 mg/kg
same,changes in cutaneous permeability induced by IgE-mediated PCA,"[1]; rat, in vivo",blocks the changes in cutaneous permeability
same,changes in permeability caused by intradermal histamine and serotonin,"histamine and serotonin; exogenous histamine and serotonin, intradermal",does not interfere with the changes in permeability
same,antihistaminic and antiserotonin effects,"histamine and serotonin; rat, in vivo",absence of antihistaminic and antiserotonin effects
same,ED50,[2],0.00033 mg/kg
same,ED50,"[3]; Rattus norvegicus, iv, rats passively sensitized with IgE-rich antiserum",0.028 mg/kg
same,rise in plasma histamine caused by antigen challenge,"[3]; rat, in vivo",prevented
same,antagonism of spasms of isolated guinea pig ileum induced with acetylcholine,[4]; acetylcholine,does not antagonize spasms
same,antagonism of spasms of isolated guinea pig ileum induced with histamine,[4]; histamine,does not antagonize spasms
same,antagonism of spasms of isolated guinea pig ileum induced with SRS-A,[4]; slow reacting substance of anaphylaxis (SRS-A),does not antagonize spasms
same,pentagastrin-stimulated acid output,[5],does not affect pentagastrin-stimulated acid output
same,sodium and potassium excretion,urinary volume output,an increase in sodium and potassium excretion was observed
same,urinary concentrations of sodium and potassium ions,urinary volume output,unchanged
same,maximum effect on urinary volume output,urinary volume output; 0.3 to 5 mg/kg,twofold increase in volume output
same,emetic effect when administered by capsule after meals,"dogs [6]; capsule after, rather than before, meals",could be eliminated
same,emesis,dogs [6]; [9],observed at all doses
same,gross pathological changes,dogs [6]; [9],No gross pathological changes were observed
same,"microscopic examination of liver, kidney, heart and lung",dogs [6]; [9],did not reveal any changes
same,serum enzyme levels,dogs [7],remained normal
same,serum glutamic-pyruvic transaminase,rats; highest dose (300 mg/kg/day),slight increase
same,changes in clinical chemistry (other than serum glutamic-pyruvic transaminase),rats; [10],no changes in clinical chemistry were observed
same,"pathological changes on gross and microscopic evaluation of liver, kidney, heart and lung",rats; [10],no resultant pathological changes
same,"chromosomal damage in bone marrow, single dose",bone marrow,did not reveal any chromosomal damage
same,chromosomal breakage in human lymphocytes,human lymphocytes,failed to reveal any significant drug-induced chromosomal breakage
same,"oral absorption, dog",[8]; oral suspensions or capsules,absorbed readily
same,concentration at 1 h,"[8]; plasma, dog, one hour, oral 50 to 300 mg/kg, suspensions or capsules, read-out: plasma concentration one hour after oral administration, dog",9000 to 26000 ng/mL
same,anticholinergic effects,anticholinergic effects,no significant anticholinergic effects
